Measurements as given in US20220154242A1, “METHOD FOR MODIFYING SUBSTRATE SPECIFICITY OF GLUCOSE DEHYDROGENASE AND AGENT FOR MODIFYING SUBSTRATE SPECIFICITY OF GLUCOSE DEHYDROGENASE” (KIKKOMAN CORPORATION, priority 2019, published 2022).

Legend:
[1] = tested on: GLD1 (glucose dehydrogenase (FAD-dependent), BBI Solutions); experiment: Maltose/glucose response current ratio, unimmobilized GLD1 with mPMS (chronoamperometry); format: biochemical, Aspergillus; conditions: for Maltose/Glucose (%) / Relative value (%) of Maltose/Glucose: 5 mM additive; for Maltose/Glucose (%): mPMS; for Relative value (%) of Maltose/Glucose: no modifier = 100%
Protocol: (§1) 10 μL of 12 mg/ml MpGDH purified preparation, 10 μL of 15 mM each glucose analog, and 10 μL of 20 mM potassium phosphate buffer were mixed and allowed to stand for 2 hours or longer. Onto screen-printed electrodes (manufactured by DropSens, Product number: DRP-C110), 80 μL of PBS, 5 μL of each MpGDH solution, and 10 μL of 2 mg/ml mPMS solution were applied and mixed. Chronoamperometric measurement was carried out at an applied voltage of +100 mV (Ag/Ag+). Once the current value had become sufficiently constant (about 100 seconds after the start of measurement), a maltose solution was added to a final concentration of 5 mM and mixed by pipetting up and down. Measurement was stopped once the current value had become sufficiently constant. The difference in the response current before and after the addition of maltose was regarded as the response current value of maltose. In contrast, when an equivalent amount of pure water was added instead of the maltose solution, increase in the response current was not observed. The used printed electrode was thoroughly washed with ultrapure water and dried, and then chronoamperometric measurement was carried out in the same manner as above. A glucose solution was added instead of the maltose solution and the response current value of glucose was measured. The value calculated by dividing the response current value of maltose by the response current value of glucose was expressed as maltose/glucose (%).
In the same manner, GLD1 was used to examine the effect of the substrate specificity modifier.

MpGDH = experiment: Maltose/glucose response current ratio, unimmobilized MpGDH with mPMS (chronoamperometry); format: biochemical, Mucor prainii; conditions: for maltose/glucose relative to MpGDH considered as 100%: unimmobilized MpGDH, mPMS, 5 mM maltose, +100 mV
Protocol: as §1

MrdGDH = experiment: Maltose/glucose response current ratio, unimmobilized MrdGDH with mPMS (chronoamperometry); format: biochemical, Mucor RD056860
Protocol: as §1
In the same manner, MrdGDH was used to examine the effect of the substrate specificity modifier.

[2] = tested on: GLD1 (glucose dehydrogenase (FAD-dependent), BBI Solutions); experiment: Maltose/glucose response current ratio, IPPD/GLD1-immobilized screen-printed electrode (chronoamperometry); format: biochemical, Aspergillus; conditions: for Maltose/Glucose (%) / Relative value (%) of Maltose/Glucose: 5 mM additive; for Maltose/Glucose (%): 1 mM maltose, 1 mM glucose; for Relative value (%) of Maltose/Glucose: no modifier = 100%
Description: (§2) The ratio (Mal/Glu) of the reactivity of the glucose dehydrogenase to maltose (Mal) relative to the reactivity thereof to glucose (Glu) can be determined by the following procedures. Onto a printed carbon electrode, N-isopropyl-N′-phenyl-p-phenylenediamine (IPPD) is immobilized by adsorption and a glucose dehydrogenase is immobilized by cross-linking using glutaraldehyde, wherein the glucose dehydrogenase is, for example, a glucose dehydrogenase from a microorganism of the genus Mucor or a glucose dehydrogenase from a microorganism of the genus Aspergillus. Chronoamperometry is performed by using a three-electrode system composed of a working electrode, a counter electrode, and a reference electrode and applying a potential of +250 mV (Ag/AgCl). Once the current value has become sufficiently constant, maltose is added to a final concentration of 1 mM in phosphate-buffered saline (PBS) (for example, maltose is added 100 seconds after the start of measurement). Next, once the current value has become sufficiently constant again after the addition of maltose, glucose is added to a final concentration of 1 mM in phosphate-buffered saline (PBS) (for example, glucose is added 100 seconds after the addition of maltose). The substrate specificity of glucose dehydrogenase can be evaluated by measuring the reactivity thereof to maltose when the reactivity thereof to glucose is considered as 100%. In the present specification, the ratio of the reactivity to maltose (Mal) relative to the reactivity to glucose (Glu) may be denoted as Mal/Glu. When the reactivity is evaluated based on the response current(s), the ratio of the reactivity may be expressed as the ratio of the response current(s).
(§3) 10 μL of 12 mg/ml MpGDH purified preparation, 10 μL of 15 mM each glucose analog, and 10 μL of 20 mM potassium phosphate buffer were mixed and allowed to stand for 2 hours or longer. N-isopropyl-N′-phenyl-p-phenylenediamine (IPPD) was immobilized by adsorption onto screen-printed electrodes (manufactured by DropSens, Product number: DRP-C110) and 12 μg of each MpGDH was applied to the electrodes and allowed to dry at room temperature. Lastly, the electrodes were placed in 25% glutaraldehyde vapor and the resulting electrodes were washed with pure water to obtain IPPD.MpGDH-immobilized electrodes. Next, the electrode was connected to an ALS electrochemical analyzer 814D via a dedicated connector (DRP-CAC). Then, the IPPD.GDH-immobilized electrode, an Ag/AgCl reference electrode, and a platinum counter electrode were immersed in PBS and chronoamperometric measurement was carried out. The applied voltage was set to +250 mV (Ag/AgCl). Once the current value had become sufficiently constant (about 100 seconds after the start of measurement), maltose was added to a final concentration of 1 mM in PBS. Next, subsequently to the addition of the maltose solution, once the current value had become sufficiently constant again (about 100 seconds after the addition of maltose), a glucose solution was added to a final concentration of 1 mM. The difference in the response current before and after the addition of maltose was recorded as the response current value of maltose, and the difference in the response current before and after the addition of glucose was recorded as the response current value of glucose. The value calculated by dividing the response current value of maltose by the response current value of glucose was expressed as maltose/glucose (%). […] Furthermore, when the maltose/glucose of MpGDH in the absence of a substrate specificity modifier is considered as 100%, the value in the presence of D-glucal became 69%, and the substrate specificity was modified.
In the same manner, glucose dehydrogenase (FAD-dependent) (from BBI Solutions, Product Code: GLD1, hereinafter denoted as GLD1) was used to examine the effect of the substrate specificity modifier.

Wild type MpGDH [3] = experiment: Maltose/glucose response current ratio, IPPD/MpGDH-immobilized screen-printed electrode (chronoamperometry); format: biochemical, Mucor prainii
Description: as §2, §3

Wild type MpGDH [4] = experiment: Maltose/glucose response current ratio, MWCNT/DPPD/MpGDH-immobilized carbon cloth electrode (chronoamperometry); format: biochemical, Mucor prainii; conditions: for Maltose/Glucose Relative value (%): 50 mM additive, wild type MpGDH on carbon cloth electrode, no modifier = 100%; for Modification of substrate specificity of GDH: carbon cloth electrode, MpGDH
Protocol: The cloth was thoroughly dried and then washed with ultrapure water. Subsequently, 40 mg/ml wild type MpGDH and 20 μl of 100 mM various glucose analogs dissolved in ultrapure water were mixed in equal proportions, and 20 μl of the resulting solution was applied to the […] immobilized electrode. After being allowed to dry at room temperature, the electrode was placed in 25% glutaraldehyde vapor for 20 minutes to immobilize MpGDH by cross-linking. Then, the electrode was subjected to washing with ultrapure water in the same manner as above to obtain an […]-immobilized electrode. Next, this electrode was connected to an ALS electrochemical analyzer […]. Then, the […]-immobilized electrode, an Ag/AgCl reference electrode, and a platinum counter electrode were immersed in PBS, and chronoamperometric measurement was carried out. The applied voltage was set to +250 mV (Ag/AgCl). […] The difference in the response current before and after the addition of maltose was recorded as the response current value of maltose, and the difference in the response current before and after the addition of glucose was recorded as the response current value of glucose. The value calculated by dividing the response current value of maltose by the response current value of glucose was expressed as maltose/glucose (%). […] An […]-immobilized electrode was made in the same manner as Example 4 except that the application step was altered. That is, 20 μl of 40 mg/ml wild type MpGDH was mixed with 10 μl each of 100 mM glycerol and 100 mM L-iditol dissolved in ultrapure water, and 20 μl of the resulting solution was applied to the […] immobilized electrode for the application step. Then, chronoamperometric measurement was carried out according to the method described in Example 4, and the maltose/glucose (%) was calculated.

| Compound | Modification of substrate specificity [1] | Maltose/Glucose (%) [1] [%] | Relative value (%) of Maltose/Glucose [1] [%] | maltose/glucose relative to MpGDH considered as 100% (MpGDH) [%] | Modification of substrate specificity (MrdGDH) | Maltose/Glucose (%) (MrdGDH; 5 mM additive, mPMS) | Relative value (%) of Maltose/Glucose (MrdGDH; 5 mM additive, no modifier = 100%) [%] | Modification of substrate specificity [2] | Maltose/Glucose (%) [2] [%] | Relative value (%) of Maltose/Glucose [2] [%] | Maltose/Glucose (%) (Wild type MpGDH [3]; 5 mM additive, immobilized wild type MpGDH, 1 mM maltose, 1 mM glucose, +250 mV) | Relative value (%) of Maltose/Glucose (Wild type MpGDH [3]; 5 mM additive, immobilized wild type MpGDH, no modifier = 100%) [%] | Modification of substrate specificity (Wild type MpGDH [3]; immobilized MpGDH) | Maltose/Glucose Relative value (%) (Wild type MpGDH [4]) | Modification of substrate specificity of GDH (Wild type MpGDH [4]) | Acts as substrate specificity modifier (MpGDH; enzyme not immobilized) |
| --- | --- | --- | --- | --- | --- | --- | --- | --- | --- | --- | --- | --- | --- | --- | --- | --- |
| O=C[C@@H](O)[C@@H](O)[C@H](O)[C@@H](O)CO [L-gulose] | modified the substrate specificity | 0.23 | 70 | 56 | modified the substrate specificity | 28 | 90 | modified the substrate specificity | 0 | 0 | 0.34 | 74 | modified the substrate specificity | 62 | modified the substrate specificity | – |
| OC[C@H](O)[C@@H](O)[C@H](O)[C@@H](O)CO [L-iditol] | modified the substrate specificity | 0.25 | 76 | 68 | – | – | – | modified the substrate specificity | 0 | 0 | – | – | – | 58 | modified the substrate specificity | act as a substrate specificity modifier |
